Assays:
A/Aichi/2/68 (H3N2) = type: cell-based, Influenza A virus (Human strain); details: for IC50: read-out: HI activity IC50
[1] = system: A/Duck/HK/313/4/78 (H5N3); type: cell-based, Influenza A virus (Avian strain); details: read-out: HI activity IC50

Substance: Poly[N-(ε-aminocaproyl)-β-N-acetyllactosaminylamine/-γ-PGA]]
- IC50 (A/Aichi/2/68 (H3N2)): > 200 nM
- IC50 [1]: > 200 nM

Substance: Poly[N-(ε-aminocaproyl)-β-lacto-N-neotetraosylamine/-γ-PGA]]
- IC50 (A/Aichi/2/68 (H3N2)): > 200 nM
- IC50 [1]: > 200 nM

Substance: Poly[N-(ε-aminocaproyl)-β-lactosylamine/-γ-PGA]]
- IC50 (A/Aichi/2/68 (H3N2)): > 200 nM
- IC50 [1]: > 200 nM

Substance: Poly[Neu5Ac α2-3-N-acetyllactosaminylamine β-N-(ε-aminocaproyl)/γ-PGA]
- IC50 (A/Aichi/2/68 (H3N2)): 37.5 nM
- IC50 [1]: 37.5 nM

Substance: Poly[Neu5Ac α2-3lacto-N-neotetraosylamine β-N-(ε-aminocaproyl)/γ-PGA]
- IC50 (A/Aichi/2/68 (H3N2)): 18.8 nM
- IC50 [1]: 37.5 nM

Substance: Poly[Neu5Ac α2-3lactosylamine β-N-(ε-aminocaproyl)/γ-PGA]
- IC50 (A/Aichi/2/68 (H3N2)): 37.5 nM
- IC50 [1]: 37.5 nM

Substance: Poly[Neu5Ac α2-6-N-acetyllactosaminylamine β-N-(ε-aminocaproyl)/γ-PGA]
- inhibition activity of human influenza virus infection compared with conventional O-linked sialo-glycan-containing polymer (A/Aichi/2/68 (H3N2)): many times greater
- IC50 (A/Aichi/2/68 (H3N2)): 1.2 nM
- IC50 [1]: > 200 nM

Substance: Poly[Neu5Ac α2-6-lacto-N-neotetraosylamine β-N-(ε-aminocaproyl)/γ-PGA]
- inhibition activity of human influenza virus infection compared with Poly[Neu5Ac α2-6-LacNAc β-N-(ε-aminocaproyl/γ-PGA] (A/Aichi/2/68 (H3N2)): many more times greater
- IC50 (A/Aichi/2/68 (H3N2)): 0.29 nM
- IC50 [1]: > 200 nM

Substance: Poly[Neu5Ac α2-6lactosylamine β-N-(ε-aminocaproyl)/γ-PGA]
- IC50 (A/Aichi/2/68 (H3N2)): 4.7 nM
- IC50 [1]: > 200 nM
